# Experimental data: patent publication US20210145930A1, “MULTIPLE LAYER ARTICLE WITH INTERACTIVE REINFORCEMENTS LINEAR RIBBON FIBER REINFORCEMENT FOR COMPOSITE FORMS” (NeuroTheranostics, Inc., priority 2018, published 2021)
# No end group written: not given here.
# Experiments:
# Format in all cases: in vivo, Sprague-Dawley rats
# [1] = tested on: rats with mild-moderate TBI; assay: Modified neurological severity score (mNSS) after controlled cortical impact TBI; conditions: 3 mg/kg i.v. at 24 h and 48 h post injury; Days 14-25 after TBI; vs saline-treated group, P<0.05
# Description: (§1) A controlled cortical impact (CCI) device was used to induce mild-moderate TBI. Adult male (280-300 g) Sprague-Dawley rats (Harlan: Indianapolis, Ind.) were anesthetized intraperitoneally with xylazine (10 mg/kg body weight) and ketamine (40 mg/kg body weight). Rectal temperature was maintained at 37° C. using a feedback-regulated water-heating pad. The surgical area of the skull was prepared using germicidal povidone-iodine scrub followed by a 70% isopropyl alcohol rinse combinations, being careful to scrub from the center of the surgical site toward the periphery. Rats were placed in a stereotactic frame. […] Velocity was measured with a linear velocity displacement transducer. […] Neurological functional outcome was measured by the modified neurological severity score (mNSS), Morris Water Maze (MWM) and foot-fault test. mNSS is a composite of the motor (muscle status, abnormal movement), sensory (visual, tactile and proprioceptive) and reflex tests. […] If the animal reached the platform within 90 sec, the percentage of time traveled within the NE (correct) quadrant was calculated relative to the total amount of time spent swimming before reaching the platform and employed for statistical analysis. […] Rats were monitored continuously while in the tank. […] When animals inaccurately place a limb, the limb falls through one of the openings in the grid, which is counted as a foot fault. […]
# [2] = tested on: rats with mild-moderate TBI; assay: BrdU immunostaining, cell proliferation after controlled cortical impact TBI; conditions: 3 mg/kg i.v. at 24 h and 48 h post injury; examined 25 days after TBI; vs saline controls, p<0.05, n=7
# Description: BrdU, an analog of thymidine, can be incorporated into the newly synthesized DNA of replicating cells during the S phase of the cell cycle, substituting for thymidine during DNA replication. BrdU immunostaining is commonly used to detect cell proliferation. To determine the effect of SEQ ID NO. 5 (3 mg/kg, i.v.) or saline on cell proliferation, BrdU (100mg/kg) was injected i.p. daily starting at day 1 after mild-moderate TBI and continued for 10 days after TBI to label newly generated cells. Twenty-five days after TBI, the animals were anesthetized and sacrificed. The brains were fixed in 4% paraformaldehyde and cut into seven equally spaced 2-mm coronal blocks using a rat brain matrix. […] 5-treated rats examined at 25 days after TBI, compared to the saline controls. […]
# A large part of the functional recovery that occurs after brain injury is due to neurogenesis, and brain plasticity caused by anatomical and functional reorganization of the CNS. […] 5 on neurogenesis, the brain blocks containing the hippocampus were processed for vibratome sections (100 μm) followed by double fluorescence staining for endogenous cellular proliferation {BrdU positive cells (red) and MAP 2 (green) to identify newborn neurons in the ipsilateral dentate gyrus (DG) of the hippocampus. […] Quantitative measurements of immunostaining were performed by an observer blinded to the individual treatment status of the animals. […]
# [3] = tested on: rats with mild-moderate TBI; assay: BrdU/MAP-2 double fluorescence staining, neurogenesis after controlled cortical impact TBI; conditions: 3 mg/kg i.v. at 24 h and 48 h post injury; 25 days post injury; vs saline controls, p<0.05, n=7
# Source text: (§2) A large part of the functional recovery that occurs after brain injury is due to neurogenesis, and brain plasticity caused by anatomical and functional reorganization of the CNS. To determine the effect of SEQ ID NO. 5 on neurogenesis, the brain blocks containing the hippocampus were processed for vibratome sections (100 μm) followed by double fluorescence staining for endogenous cellular proliferation {BrdU positive cells (red) and MAP 2 (green) to identify newborn neurons in the ipsilateral dentate gyrus (DG) of the hippocampus. Five sections with 100-μm intervals from the dorsal dentate gyms were used for immunohistochemical staining with the same antibody. Sections were blocked in a Tris-buffered saline solution containing 5% normal goat serum, 1% BSA and 0.05% Tween-20. […] Quantitative measurements of immunostaining were performed by an observer blinded to the individual treatment status of the animals. […] The cells with BrdU that clearly localized to the nucleus were counted as BrdU-positive cells. […] The fluorescent images were analyzed with a Bio-Rad MRC 1024 (argon and krypton) laser-scanning confocal imaging system mounted onto a Zeiss microscope (Bio-Rad, Cambridge, Mass.). […]
# A controlled cortical impact (CCI) device was used to induce mild-moderate TBI. […] Velocity was measured with a linear velocity displacement transducer. […]
# [4] = tested on: rats with mild-moderate TBI; assay: Morris Water Maze (MWM) after controlled cortical impact TBI; conditions: 3 mg/kg i.v. at 24 h and 48 h post injury; Days 23 to 25 post-injury; vs saline-treated group, P<0.05
# Description: as §1
# [5] = tested on: rats with mild-moderate TBI; assay: Endothelial barrier antigen (EBA) staining, vascular density after controlled cortical impact TBI; conditions: 3 mg/kg i.v. at 24 h and 48 h post injury; 25 days after TBI; vs saline-treated rats, p<0.05, n=7
# Source text: as §2, with “antibody.” for “antibody. Sections were blocked in a Tris-buffered saline solution containing 5% normal goat serum, 1% BSA and 0.05% Tween-20.”
# Endothelial barrier antigen (EBA)-staining has been used to identify vascular structure in the brain after ischemic brain injury. […] 5-therapy on vessel proliferation and vascular density, quantitative measurement of Endothelial Barrier Antigen (EBA) staining was performed. […]
# [6] = tested on: rats with mild-moderate TBI; assay: Modified foot-fault test after controlled cortical impact TBI; conditions: 3 mg/kg i.v. at 24 h and 48 h post injury; up to 25 days after TBI; vs control group
# Description: as §1
sequence,measurement,setting,value
DPMSSTYIEELGKREVTIPPKYVALLPAVLLALLAP [SEQ ID NO. 5],sensorimotor scores (mNSS),[1],significantly improved
same,number of BrdU-positive cells in the ipsilateral cortex and hippocampus,[2],significantly increased
same,"number of newborn neurons (BrdU/MAP-2 positive) in the ipsilateral DG, per mm^2",[3],significantly increased
same,"spatial learning and memory retention (percentage of time spent in the correct quadrant, MWM)",[4],significant improvement
same,density (vessels/mm2) of EBA positive vessels in the injured cortex area,[5],significantly increased
same,neurological function assessed by the footfault test,[6],no significant improvement
